Experimental data as given in ChEMBL document CHEMBL5260814, “Design strategies in the prodrugs of HIV-1 protease inhibitors to improve the pharmaceutical properties” (Eur J Med Chem, 2017).
Values after ≈ are worked out from the molar mass of the structure shown. Values belong to the compound of their own block, whether it stands above or below them.

Columns and labels:
[1] = Stability of compound in DPBS buffer at pH 7.4 assessed as half life measured for 48 hrs; format: physicochemical
[2] = Stability of compound in human Caco-2 cells assessed as half life measured for 48 hrs; format: ADME, cell-based
[3] = Half life in calf; format: ADME, Bos taurus; conditions: cattle
[4] = Solubility of compound at pH at 3; format: physicochemical; conditions: pH 3
[5] = Solubility of compound at pH at 3 to 4; format: physicochemical
[6] = Equilibrium solubility of compound; format: physicochemical
[7] = Solubility of compound at pH at 7; format: physicochemical; conditions: pH 7
[8] = AUC in rat at 5 mg/kg, po; format: ADME, organism-based; set-up: dose 5 mg/kg, route po; conditions: in vivo
[9] = Aqueous solubility of compound; format: physicochemical; conditions: buffer
[10] = Drug uptake in dog MDCK-MDR1 cells; format: ADME, cell-based, Canis lupus familiaris
[11] = Prodrug conversion in human serum at 50 uM using glycylprolyl-para-nitroanilide as substrate measured for 4 hrs relative to control; format: ADME, cell-free
[12] = Prodrug conversion in human serum at 50 uM using glycylprolyl-para-nitroanilide as substrate measured for 1 hr relative to control; format: ADME, cell-free
[13] = Efflux ratio of apparent permeability across apical to basolateral to basolateral to apical side in MDCK1 cells; format: ADME, cell-based
P-glycoprotein = assay: Efflux ratio of apparent permeability across basal to apical membrane over apical to basal membrane in human Caco-2 cells in absence of P-glycoprotein; format: ADME, cell-based
[14] = Metabolic stability in rat liver microsome assessed as half life […]; format: ADME; conditions: liver microsomes
[15] = Metabolic stability in rat plasma assessed as half life at 0.2 mg/kg, po; format: ADME
[16] = Efflux ratio of apparent permeability across basal to apical membrane over apical to basal membrane in human Caco-2 cells; format: ADME, cell-based
[17] = Stability of compound assessed as half life at pH 2; format: physicochemical; conditions: buffer
[18] = Chemical stability of compound in PBS buffer at pH 4 assessed as half life measured for 24 hrs; format: physicochemical
[19] = Chemical stability of compound in PBS buffer at pH 7.4 assessed as half life measured for 24 hrs; format: physicochemical
[20] = Metabolic stability in rat liver microsome assessed as compound remaining measured after 2 hrs; format: ADME; conditions: microsomes
[21] = Metabolic stability in rat liver microsome assessed as compound remaining measured after 4 hrs; format: ADME; conditions: microsomes
[22] = Stability of compound in PBS buffer at pH 7.4 assessed as half life; format: physicochemical
[23] = molecular target: Human immunodeficiency virus type 1 protease (Human immunodeficiency virus 1, UniProt Q72874); assay: Inhibition of HIV-1 protease by FRET-based assay
[24] = molecular target: T1, Peptidyl-prolyl cis-trans isomerase FKBP1A (Homo sapiens, UniProt P62942); assay: Inhibition of FKBP12 (unknown origin) measured for 6 hrs relative to control; conditions: concentration not given here
[25] = molecular target: T1, Peptidyl-prolyl cis-trans isomerase FKBP1A; assay: Inhibition of FKBP12 (unknown origin)
[26] = Half life in mouse plasma at 10 mg/kg, ip measured after 12 hrs; format: ADME, organism-based
[27] = Half life in mouse plasma at 10 mg/kg, ip measured after 3 hrs; format: ADME, organism-based

T1 sequence (P62942 whole entry): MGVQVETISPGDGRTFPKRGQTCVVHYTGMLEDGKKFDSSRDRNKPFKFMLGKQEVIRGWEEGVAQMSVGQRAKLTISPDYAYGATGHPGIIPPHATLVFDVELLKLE

half-life [3]: > 0.5 h
SMILES: CC(C)c1nc(CN(C)C(=O)N[C@H](C(=O)N[C@@H](Cc2ccccc2)C[C@H](OC(OP(=O)([O-])[O-])C(C)C)[C@H](Cc2ccccc2)NC(=O)OCc2cncs2)C(C)C)cs1.[Na+].[Na+] (stereo partly drawn)

Ratio [13]: 2.1
efflux ratio (P-glycoprotein): 1.2
half-life [14]: 1.48 h
half-life [15]: 7.8 h
SMILES: CC(C)[C@H](N)C(=O)N[C@H](C(=O)O[C@H](CN1C[C@H]2CCCC[C@H]2C[C@H]1C(=O)NC(C)(C)C)[C@H](Cc1ccccc1)NC(=O)[C@H](CC(N)=O)NC(=O)c1ccc2ccccc2n1)C(C)C

efflux ratio [16]: 12
SMILES: COC(=O)N[C@H](C(=O)N[C@@H](Cc1ccccc1)[C@@H](O)CN(Cc1ccc(-c2ccccn2)cc1)NC(=O)[C@@H](NC(=O)OC)C(C)(C)C)C(C)(C)C [ATAZANAVIR]

half-life [18]: 101 h
half-life [19]: 5.4 h
solubility [9]: 7 µg/mL (≈ 11.1 µM)
Stability [20]: 5%
SMILES: Cc1cccc(C)c1OCC(=O)N[C@@H](Cc1ccccc1)[C@@H](O)C[C@H](Cc1ccccc1)NC(=O)[C@H](C(C)C)N1CCCNC1=O [LOPINAVIR]

Stability [21]: 46%
Stability [20]: 26%
SMILES: Cc1cccc(C)c1OCC(=O)N[C@@H](Cc1ccccc1)[C@H](C[C@H](Cc1ccccc1)NC(=O)[C@H](C(C)C)N1CCCNC1=O)OC(=O)[C@@H](NC(=O)CN)C(C)C

The next lines start with the compound.

SMILES: CC(C)(C)NC(=O)[C@@H]1C[C@@H]2CCCC[C@@H]2CN1C[C@@H](OC(=O)CCC(=O)OCC(O)C1OC(=O)C(O)=C1O)[C@H](Cc1ccccc1)NC(=O)[C@H](CC(N)=O)NC(=O)c1ccc2ccccc2n1 (stereo partly drawn)
half-life [1]: 9.65 h
half-life [2]: 5.73 h

SMILES: CC(C)CN(C[C@@H](OP(=O)([O-])[O-])[C@H](Cc1ccccc1)NC(=O)O[C@H]1CCOC1)S(=O)(=O)c1ccc(N)cc1.[Ca+2] [FOSAMPRENAVIR CALCIUM]
solubility [4]: 54000 µg/mL
solubility [5]: 54000 µg/mL
solubility thermodynamic [6]: 400 µM
solubility [7]: 300 µg/mL

SMILES: CC(C)c1nc(CN(C)C(=O)N[C@H](C(=O)N[C@@H](Cc2ccccc2)C[C@H](OCOP(=O)([O-])[O-])[C@H](Cc2ccccc2)NC(=O)OCc2cncs2)C(C)C)cs1.[Na+].[Na+]
half-life [3]: 0.117 h
AUC [8]: 460 ng·h/mL
solubility [9]: > 5000 µg/mL

SMILES: CC(C)(C)NC(=O)[C@@H]1C[C@@H]2CCCC[C@@H]2CN1C[C@@H](OC(=O)CCCC[C@@H]1SC[C@@H]2NC(=O)N[C@@H]21)[C@H](Cc1ccccc1)NC(=O)[C@H](CC(N)=O)NC(=O)c1ccc2ccccc2n1
Drug uptake [10]: 72%

SMILES: CC(C)CN(C[C@@H](O)[C@H](Cc1ccccc1)NC(=O)O[C@H]1CO[C@H]2OCC[C@H]21)S(=O)(=O)c1ccc(CNC(=O)[C@@H]2CCCN2C(=O)[C@@H](N)C(C)C)cc1
Drug metabolism [11]: 2%
Drug metabolism [12]: 2%

SMILES: Cc1cccc(C)c1OCC(=O)N[C@@H](Cc1ccccc1)[C@H](C[C@H](Cc1ccccc1)NC(=O)[C@H](C(C)C)N1CCCNC1=O)OC(C)OP(=O)([O-])[O-].[Na+].[Na+] (stereo partly drawn)
AUC [8]: 9530 ng·h/mL
solubility [9]: > 5000 µg/mL
half-life [17]: < 0.25 h

SMILES: CC(O[C@@H](C[C@H](Cc1ccccc1)NC(=O)[C@@H](NC(=O)N(C)Cc1csc(C(C)C)n1)C(C)C)[C@H](Cc1ccccc1)NC(=O)OCc1cncs1)OP(=O)([O-])[O-].[Na+].[Na+] (stereo partly drawn)
AUC [8]: 630 ng·h/mL
solubility [9]: > 5000 µg/mL
half-life [17]: < 0.25 h

SMILES: Cc1cccc(C)c1OCC(=O)N[C@@H](Cc1ccccc1)[C@H](O)C(=O)N1CSC(C)(C)[C@H]1C(=O)NC(C)(C)C
half-life [22]: 4 min

SMILES: CCC(C)(C)C(=O)C(=O)N1CCCCC1C(=O)OC(CCc1ccc(OC)c(OC)c1)c1cccc(NC(=O)CCC(=O)N[C@@H](Cc2ccccc2)[C@H](O)CN(CC(C)C)S(=O)(=O)c2ccc(OC)cc2)c1 (stereo partly drawn)
IC50 [23]: 9.8 nM
inhibition [24]: 100%
IC50 [25]: 11.8 nM
half-life [26]: > 9 h

SMILES: COc1ccc(S(=O)(=O)N(CC(C)C)C[C@@H](O)[C@H](Cc2ccccc2)NC(=O)O[C@H]2CCOC2)cc1
IC50 [23]: 4.2 nM
half-life [27]: 0.5 h
inhibition [24]: 100%
